We go through eight molecules from ChEMBL document CHEMBL5465560, “Selectivity Literature for EUbOPEN Chemogenomic Library” (2024).

Test [1] has as its target Receptor-type tyrosine-protein kinase FLT3 (Homo sapiens) (UniProt P36888). In words: Selectivity interaction (ProQinase) EUB0000171b FLT3. As to conditions: at 5 µM.
Test [2] concerns the target T1, Serine/threonine-protein kinase RIO1 (Homo sapiens) (UniProt Q9BRS2).
T1 sequence (whole entry): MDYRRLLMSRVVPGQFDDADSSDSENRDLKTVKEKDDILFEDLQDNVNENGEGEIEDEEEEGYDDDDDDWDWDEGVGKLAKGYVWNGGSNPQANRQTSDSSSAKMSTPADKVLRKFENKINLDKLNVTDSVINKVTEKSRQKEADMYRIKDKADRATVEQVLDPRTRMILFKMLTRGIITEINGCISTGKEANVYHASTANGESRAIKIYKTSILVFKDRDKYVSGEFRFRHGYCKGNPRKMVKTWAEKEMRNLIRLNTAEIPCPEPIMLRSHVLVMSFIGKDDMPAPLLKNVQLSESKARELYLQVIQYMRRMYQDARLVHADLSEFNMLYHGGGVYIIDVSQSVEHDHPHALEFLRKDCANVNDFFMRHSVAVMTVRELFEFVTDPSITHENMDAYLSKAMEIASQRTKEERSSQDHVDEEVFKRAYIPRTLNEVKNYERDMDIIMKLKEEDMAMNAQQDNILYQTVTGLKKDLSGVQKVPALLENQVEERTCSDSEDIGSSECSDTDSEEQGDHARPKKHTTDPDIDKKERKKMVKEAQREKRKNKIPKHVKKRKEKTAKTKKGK
As to conditions: at 10 µM.

Test [3] has as its target T2, Tyrosine-protein kinase ITK/TSK (Homo sapiens) (UniProt Q08881).
T2 sequence (whole entry): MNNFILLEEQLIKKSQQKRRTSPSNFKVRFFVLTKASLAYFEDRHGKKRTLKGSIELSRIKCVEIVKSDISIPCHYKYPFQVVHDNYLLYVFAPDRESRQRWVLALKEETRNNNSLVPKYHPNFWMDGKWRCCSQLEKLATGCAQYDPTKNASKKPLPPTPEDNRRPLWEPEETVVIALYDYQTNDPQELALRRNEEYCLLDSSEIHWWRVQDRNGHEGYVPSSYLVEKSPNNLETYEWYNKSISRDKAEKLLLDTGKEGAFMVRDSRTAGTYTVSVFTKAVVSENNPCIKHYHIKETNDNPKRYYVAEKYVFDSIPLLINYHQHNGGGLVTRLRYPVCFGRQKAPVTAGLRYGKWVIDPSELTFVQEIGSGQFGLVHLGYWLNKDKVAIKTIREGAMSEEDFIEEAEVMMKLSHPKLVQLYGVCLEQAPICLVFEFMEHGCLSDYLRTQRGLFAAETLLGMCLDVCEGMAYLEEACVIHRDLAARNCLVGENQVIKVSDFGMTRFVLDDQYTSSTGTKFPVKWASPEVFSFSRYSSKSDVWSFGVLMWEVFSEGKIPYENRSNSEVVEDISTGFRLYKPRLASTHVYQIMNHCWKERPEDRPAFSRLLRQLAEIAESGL
The test is described as follows: Selectivity interaction (KinomeScan (DiscoverX)) EUB0001079a ITK. As to conditions: at 1 µM.

For test [4], the target named is Tyrosine-protein kinase Fes/Fps (Homo sapiens) (UniProt P07332). The test is described as follows: Selectivity interaction (Millipore kinase profiler) EUB0000124b FES. As to conditions: at 10 µM.
Test [5] has as its target Serine/threonine-protein kinase 32C (Homo sapiens) (UniProt Q86UX6). The test is described as follows: Selectivity interaction (KinomeScan (DiscoverX)) EUB0001049a STK32C. As to conditions: at 1 µM.
Test [6] has as its target Serine/threonine-protein kinase 35 (Homo sapiens) (UniProt Q8TDR2). The test is described as follows: Selectivity interaction (KinomeScan (DiscoverX)) EUB0000666a STK35. As to conditions: at 10 µM.
The target in test [7] is T3, Serine/threonine-protein kinase D3 (Homo sapiens) (UniProt O94806).
T3 sequence (whole entry): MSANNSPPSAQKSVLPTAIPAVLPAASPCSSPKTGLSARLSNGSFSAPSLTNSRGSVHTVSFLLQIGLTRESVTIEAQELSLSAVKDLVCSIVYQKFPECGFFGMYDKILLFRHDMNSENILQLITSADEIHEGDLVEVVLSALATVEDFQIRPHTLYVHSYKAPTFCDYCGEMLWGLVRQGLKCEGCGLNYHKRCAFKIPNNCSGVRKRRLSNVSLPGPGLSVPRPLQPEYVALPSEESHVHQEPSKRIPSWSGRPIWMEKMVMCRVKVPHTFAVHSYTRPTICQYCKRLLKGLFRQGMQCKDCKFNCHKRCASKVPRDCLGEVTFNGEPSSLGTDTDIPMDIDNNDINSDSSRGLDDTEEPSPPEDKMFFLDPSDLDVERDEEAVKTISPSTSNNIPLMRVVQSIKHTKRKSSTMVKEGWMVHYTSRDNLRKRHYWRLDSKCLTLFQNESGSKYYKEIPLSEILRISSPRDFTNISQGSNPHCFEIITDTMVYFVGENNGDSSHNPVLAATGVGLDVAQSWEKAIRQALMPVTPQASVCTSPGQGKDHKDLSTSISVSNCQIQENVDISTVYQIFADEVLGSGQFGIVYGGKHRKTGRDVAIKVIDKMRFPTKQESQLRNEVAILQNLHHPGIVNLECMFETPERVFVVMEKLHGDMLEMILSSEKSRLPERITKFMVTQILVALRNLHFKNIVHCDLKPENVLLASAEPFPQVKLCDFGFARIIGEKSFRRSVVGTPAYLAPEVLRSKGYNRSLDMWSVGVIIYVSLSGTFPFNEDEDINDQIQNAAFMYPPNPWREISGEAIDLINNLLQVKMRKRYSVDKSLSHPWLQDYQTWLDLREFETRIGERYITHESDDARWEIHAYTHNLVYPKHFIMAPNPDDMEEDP
In words: Selectivity interaction (KinomeScan (DiscoverX)) EUB0000607a PRKD3. As to conditions: at 10 µM.

For test [8], the target named is Calcium/calmodulin-dependent protein kinase type 1 (Homo sapiens) (UniProt Q14012). In words: Selectivity interaction (KinomeScan (DiscoverX)) EUB0001619a CAMK1. As to conditions: at 1 µM.
Calcium/calmodulin-dependent protein kinase type 1 (Homo sapiens), sequence (Q14012 whole entry, looked up): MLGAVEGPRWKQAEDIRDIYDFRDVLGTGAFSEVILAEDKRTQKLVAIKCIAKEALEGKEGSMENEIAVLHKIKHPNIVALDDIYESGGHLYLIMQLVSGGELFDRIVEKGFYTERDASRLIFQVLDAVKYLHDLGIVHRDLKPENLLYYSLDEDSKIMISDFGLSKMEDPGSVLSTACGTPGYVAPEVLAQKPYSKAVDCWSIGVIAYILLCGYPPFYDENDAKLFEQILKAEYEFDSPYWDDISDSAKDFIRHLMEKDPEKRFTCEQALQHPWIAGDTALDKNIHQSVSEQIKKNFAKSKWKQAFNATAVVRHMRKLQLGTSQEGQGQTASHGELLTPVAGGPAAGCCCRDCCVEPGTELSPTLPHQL

Tyrosine-protein kinase Fes/Fps (Homo sapiens), sequence (P07332 whole entry): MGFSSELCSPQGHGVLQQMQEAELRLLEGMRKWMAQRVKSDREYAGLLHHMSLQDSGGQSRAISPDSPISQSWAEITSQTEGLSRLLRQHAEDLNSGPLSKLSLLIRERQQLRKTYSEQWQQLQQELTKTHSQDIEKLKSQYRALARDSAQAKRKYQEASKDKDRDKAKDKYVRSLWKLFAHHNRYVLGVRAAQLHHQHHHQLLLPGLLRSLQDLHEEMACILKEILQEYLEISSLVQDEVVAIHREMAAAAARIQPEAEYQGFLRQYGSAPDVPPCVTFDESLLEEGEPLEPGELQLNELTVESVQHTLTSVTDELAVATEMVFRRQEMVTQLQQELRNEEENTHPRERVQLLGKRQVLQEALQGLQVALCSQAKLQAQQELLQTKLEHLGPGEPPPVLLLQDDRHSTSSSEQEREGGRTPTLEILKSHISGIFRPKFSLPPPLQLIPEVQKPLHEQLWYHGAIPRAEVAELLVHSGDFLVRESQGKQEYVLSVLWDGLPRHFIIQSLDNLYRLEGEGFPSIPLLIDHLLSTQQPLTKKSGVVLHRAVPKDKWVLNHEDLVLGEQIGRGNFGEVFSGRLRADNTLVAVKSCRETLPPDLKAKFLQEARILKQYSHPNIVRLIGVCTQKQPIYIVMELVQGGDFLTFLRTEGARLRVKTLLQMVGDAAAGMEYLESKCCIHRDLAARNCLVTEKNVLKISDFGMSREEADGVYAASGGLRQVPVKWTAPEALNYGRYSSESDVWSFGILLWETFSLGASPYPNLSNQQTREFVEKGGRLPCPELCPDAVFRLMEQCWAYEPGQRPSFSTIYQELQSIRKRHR
Serine/threonine-protein kinase 32C (Homo sapiens), sequence (Q86UX6 whole entry): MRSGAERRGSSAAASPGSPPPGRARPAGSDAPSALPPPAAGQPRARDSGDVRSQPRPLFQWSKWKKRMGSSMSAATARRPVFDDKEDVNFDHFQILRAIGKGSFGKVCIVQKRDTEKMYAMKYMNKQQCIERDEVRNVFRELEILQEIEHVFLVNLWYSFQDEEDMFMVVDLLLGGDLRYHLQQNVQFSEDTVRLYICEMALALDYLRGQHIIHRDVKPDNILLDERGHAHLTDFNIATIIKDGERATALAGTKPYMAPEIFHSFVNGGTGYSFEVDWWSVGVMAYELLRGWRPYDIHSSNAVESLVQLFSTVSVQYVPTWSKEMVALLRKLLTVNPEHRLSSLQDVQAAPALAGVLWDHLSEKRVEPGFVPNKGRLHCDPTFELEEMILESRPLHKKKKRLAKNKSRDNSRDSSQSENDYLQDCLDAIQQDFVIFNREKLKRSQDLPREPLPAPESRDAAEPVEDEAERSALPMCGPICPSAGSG
Serine/threonine-protein kinase 35 (Homo sapiens), sequence (Q8TDR2 whole entry): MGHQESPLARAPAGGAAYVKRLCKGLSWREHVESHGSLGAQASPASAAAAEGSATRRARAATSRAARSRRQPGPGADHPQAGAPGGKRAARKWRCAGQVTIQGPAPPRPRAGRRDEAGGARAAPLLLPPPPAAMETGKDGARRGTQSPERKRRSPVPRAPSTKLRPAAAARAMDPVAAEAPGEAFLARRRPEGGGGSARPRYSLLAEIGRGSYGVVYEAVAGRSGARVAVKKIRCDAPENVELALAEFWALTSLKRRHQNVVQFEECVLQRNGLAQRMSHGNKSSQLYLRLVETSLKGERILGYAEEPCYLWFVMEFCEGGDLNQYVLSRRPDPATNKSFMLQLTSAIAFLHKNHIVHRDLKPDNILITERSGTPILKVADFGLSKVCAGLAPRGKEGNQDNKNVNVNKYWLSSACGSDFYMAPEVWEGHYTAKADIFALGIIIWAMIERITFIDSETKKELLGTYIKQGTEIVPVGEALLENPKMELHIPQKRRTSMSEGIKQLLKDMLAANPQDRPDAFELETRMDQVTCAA
Receptor-type tyrosine-protein kinase FLT3 (Homo sapiens), sequence (P36888 whole entry): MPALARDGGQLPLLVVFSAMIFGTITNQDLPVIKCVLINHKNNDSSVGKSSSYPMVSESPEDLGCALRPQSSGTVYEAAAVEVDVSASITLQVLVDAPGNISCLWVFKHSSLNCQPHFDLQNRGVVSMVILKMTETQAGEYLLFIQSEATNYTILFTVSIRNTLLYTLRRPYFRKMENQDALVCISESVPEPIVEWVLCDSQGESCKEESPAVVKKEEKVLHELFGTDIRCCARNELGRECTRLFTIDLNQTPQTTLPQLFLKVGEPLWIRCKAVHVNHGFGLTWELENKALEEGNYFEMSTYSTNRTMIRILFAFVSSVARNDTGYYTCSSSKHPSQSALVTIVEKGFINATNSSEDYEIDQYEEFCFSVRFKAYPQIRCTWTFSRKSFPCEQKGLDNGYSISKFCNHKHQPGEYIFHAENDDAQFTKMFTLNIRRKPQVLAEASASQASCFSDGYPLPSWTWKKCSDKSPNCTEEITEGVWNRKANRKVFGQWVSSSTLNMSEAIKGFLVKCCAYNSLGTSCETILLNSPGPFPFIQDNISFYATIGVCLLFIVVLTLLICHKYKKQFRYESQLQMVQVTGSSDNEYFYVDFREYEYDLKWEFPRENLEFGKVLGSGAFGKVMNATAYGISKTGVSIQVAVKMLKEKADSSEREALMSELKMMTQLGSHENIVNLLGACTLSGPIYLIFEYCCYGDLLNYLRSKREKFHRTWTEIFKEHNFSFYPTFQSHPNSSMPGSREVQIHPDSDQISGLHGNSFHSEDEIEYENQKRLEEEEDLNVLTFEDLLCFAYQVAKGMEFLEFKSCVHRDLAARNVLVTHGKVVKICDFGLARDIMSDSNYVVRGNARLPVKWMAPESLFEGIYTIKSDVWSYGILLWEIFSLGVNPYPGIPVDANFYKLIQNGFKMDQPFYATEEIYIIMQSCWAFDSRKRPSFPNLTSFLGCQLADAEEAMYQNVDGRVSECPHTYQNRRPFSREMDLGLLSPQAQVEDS

In test [1], `C=CC(=O)Nc1cccc(C(=O)Nc2ccc(Nc3cc(-c4[nH]c(SC)nc4C)ccn3)cc2)c1` had a % of control of 62%.

In test [2], `Cc1cc([C@@H](C)Nc2ccccc2C(=O)O)c2nc(N3CCOCC3)cc(=O)n2c1` [AZD-6482] gave a % of control of 100%.

In test [3], `Nc1cnc(N2CCc3cc(S(=O)(=O)Nc4c(F)cc(Cl)cc4F)cc(N4CCCC4=O)c32)nc1` [TP-020n] gave a % of control of 100%.

Consider `CC(=O)Nc1cccc(-n2c(=O)n(C3CC3)c(=O)c3c(Nc4ccc(I)cc4F)n(C)c(=O)c(C)c32)c1`, for which, in test [4], the % of control was 95%.

In the case of `COc1cc(Nc2nc(C)cc(-c3cnn4nc(OC)ccc34)n2)cc(C(F)(F)F)c1`, the % of control in test [5] is 87%.

Take `O=C(NOC[C@H](O)CO)c1ccc(F)c(F)c1Nc1ccc(I)cc1F`: the % of control in test [6] came to 83%.

On to `CNC(=O)Nc1ccc(-c2nc(N3CC4CCC(C3)O4)c3cnn(C4CCC5(CC4)OCCO5)c3n2)cc1`, for which, in test [7], the % of control was 100%.

For the molecule `N#Cc1cccc(-c2c[nH]c3ncnc(N4CCOCC4)c23)c1`, the % of control in test [8] is 89%.
